Each block holds one compound with its values, some of them ahead of it.
Experiments:
human SPHK-1 = biological target: T1, human SPHK-1 (Homo sapiens, UniProt Q9NYA1); experiment: Phosphorylation of fluorescent labeled sphingosines by SPHK-1 ([γ-32P]ATP, TLC); format: biochemical; settings: for rate of phosphorylation (phosphate conversion rate) relative to sphingosine (=1), SPHK-1: 20 μM substrate, cytoplasmic fraction of HEK-293 cells overexpressing human SPHK-1; for times (fold) less efficiently converted to the phosphate than SP, SPHK-1: compared to sphingosine (SP); for reduction of phosphorylation efficiency (factor), SPHK-1: compared to compound of example 4
T1 construct: expressed in transfected cells; host or cells: HEK-293 (cytoplasmic fraction)
T1 sequence (Q9NYA1 whole entry): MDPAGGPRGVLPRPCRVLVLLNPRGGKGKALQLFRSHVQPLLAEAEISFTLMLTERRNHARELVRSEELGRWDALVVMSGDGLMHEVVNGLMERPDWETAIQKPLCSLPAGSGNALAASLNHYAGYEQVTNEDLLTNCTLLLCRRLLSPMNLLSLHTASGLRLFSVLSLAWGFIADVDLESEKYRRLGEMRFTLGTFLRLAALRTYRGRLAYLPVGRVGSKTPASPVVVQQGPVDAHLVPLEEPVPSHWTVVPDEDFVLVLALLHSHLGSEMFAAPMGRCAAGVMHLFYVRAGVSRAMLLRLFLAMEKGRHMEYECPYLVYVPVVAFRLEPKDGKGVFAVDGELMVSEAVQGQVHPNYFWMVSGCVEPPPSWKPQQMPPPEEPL
Protocol: (§1) The phosphorylation reactions are performed essentially as follows. The cytoplasmic fraction of recombinant HEK-293 cells overexpressing human SPHK-1 or -2 is incubated at 30° in total volumes of 100 μl with SP derivatives (20 μM; added from stock solutions in DMSO), 1 mM of ATP, and 2 μCi [γ-^32P]ATP in 50 mM Hepes buffer (pH 7.4) containing 15 mM MgCl2, 0.005% Triton X-100, 10 mM KCl , 10 mM NaF and 1.5 mM semicarbazide. Following incubations for different time points up to 2 hours, lipids are extracted and separated by TLC-plates (Merck). TLC is performed on silica plates, using either BuOH/acetic acid/H2O 3:1:1 or CHCl3/MeOH/H2O/NH4OH (28^w/w%) 200:150:29:1 as the mobile phase. In these systems sphingosine and the compound of Example 4 co-migrate. Identity of the metabolites with pyrene-labeled SPP and sphingomyelin (SM) is established by co-migration with commercially available tritium-labeled SPP and SM as standards.
(§2) Radiolabeled SPP derivatives are visualized and quantified using a Molecular Dynamics Storm Phosphorlmager (Sunnyvale, Calif.). The rate of phosphorylation is calculated and is reported for the fluorescent labeled sphingosines as value relative to the rate for sphingosine (for which the rate is 41 and 25 nmol/min/mg with SPHK-1 and -2, respectively).
(§3) The fluorescently labeled sphingosines of examples 1-7 are used as substrates for human recombinant SPHK-1 and SPHK-2 and all of them are converted to phosphorylated derivatives as visualized by the incorporation of radiolabeled phosphate upon incubation with [γ-32P]ATP and the kinases. The rates of phosphorylation (phosphate conversion rate) are determined and summarized in Table A relative to the natural substrate sphingosine (=SP), which has the assumed value of 1.

human SPHK-2 = biological target: T2, human SPHK-2 (Homo sapiens, UniProt Q9NRA0); experiment: Phosphorylation of fluorescent labeled sphingosines by SPHK-2 ([γ-32P]ATP, TLC); format: biochemical; settings: for rate of phosphorylation (phosphate conversion rate) relative to sphingosine (=1), SPHK-2: 20 μM substrate, cytoplasmic fraction of HEK-293 cells overexpressing human SPHK-2
T2 construct: expressed in transfected cells; host or cells: HEK-293 (cytoplasmic fraction)
T2 sequence (Q9NRA0 1-654): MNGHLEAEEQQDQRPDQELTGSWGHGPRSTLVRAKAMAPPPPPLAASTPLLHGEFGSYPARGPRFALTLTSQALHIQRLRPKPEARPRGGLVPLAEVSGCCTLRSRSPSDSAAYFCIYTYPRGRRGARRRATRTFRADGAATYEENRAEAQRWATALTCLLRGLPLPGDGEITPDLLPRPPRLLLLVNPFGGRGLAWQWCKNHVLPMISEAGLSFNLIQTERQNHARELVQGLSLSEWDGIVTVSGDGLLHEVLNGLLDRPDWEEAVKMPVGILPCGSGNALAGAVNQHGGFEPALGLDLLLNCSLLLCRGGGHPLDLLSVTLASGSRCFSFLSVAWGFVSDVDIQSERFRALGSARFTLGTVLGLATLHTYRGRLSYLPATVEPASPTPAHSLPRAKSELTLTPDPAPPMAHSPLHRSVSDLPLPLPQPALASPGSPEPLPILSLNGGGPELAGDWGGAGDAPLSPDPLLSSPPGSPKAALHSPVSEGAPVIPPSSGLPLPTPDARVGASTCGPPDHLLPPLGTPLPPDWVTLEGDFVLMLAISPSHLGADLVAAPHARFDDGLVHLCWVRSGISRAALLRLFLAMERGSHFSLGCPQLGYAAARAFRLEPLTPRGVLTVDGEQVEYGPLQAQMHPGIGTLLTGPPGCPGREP
Protocol: as §1, §2, §3

[1] = system: human endothelial cells (HUVEC); experiment: Uptake, subcellular distribution and metabolism of fluorescent labeled sphingosines in human endothelial cells; format: cell-based
Description: To examine the uptake, subcellular distribution and metabolism (conversion to the phosphate) in human endothelial cells (HUVEC), the pyrene labeled sphingosine of example 4 is used. […] Furthermore, the compound is converted intracellularly into 4 products as shown by thin-layer chromatography.

sphingosine kinase = experiment: Fluorimetric assay of sphingosine kinase activity; format: biochemical
Description: We have determined that sphingosine kinase in the presence of ATP phosphorylates a compound COMPA (compound of Example 23), which is a fluorescent labeled sphingosine, to obtain a corresponding phosphorylated compound COMPA-P (compound of Example 24) according to the Reaction SCHEME 4 as set out below.
wherein residues are as defined above and R3 is H. such as phosphorylation of a compound of Example […] by a sphingosine kinase to obtain a compound of Example […] in the presence of ATP. COMPA and COMPB are separated by liquid-liquid extraction. Fluorescence as a measure of enzyme activity of a compound of formula COMPA-P in the aqueous phase is quantified. In detail:
Sphingosine kinase is incubated in total volumes of 100 μl with a compound of formula COMPA (20 μM, added from stock solutions in DMSO) and ATP (1 mM) in 50 mM Hepes buffer, pH 7.4, containing 15 mM MgCl2, 0.005% Triton X-100, 10 mM KCl for 30 minutes at 30° and to the mixture obtained 100 μl 1 M potassium phosphate buffer, pH 8.5, followed by 250 μl CHCl3/MeOH 2:1 are added. […]
Fluorescence intensity is measured in a plate reader with excitation at 485 nm and emission at 538 nm. […] From the fluorescence intensity, concentrations of a compound of formula COMPA-P are calculated using appropriate calibration curves in the same solvent system. […]

[2] = system: HUVEC overexpressing SPHK-1 or SPHK-2; experiment: Sphingolipid turnover of labeled sphingosines in HUVEC transiently transfected with SPHK-1 and SPHK-2; format: cell-based, human; settings: FIG. 3, transfected cells, TLC
Protocol: HUVEC as described in Test Example 4 are seeded in 6-well plates at 50% confluency and grown overnight. Grown cells obtained are transfected using Lipofectamine Plus reagent with an empty vector (GFP-vector from Clontech) alone and GFP-tagged expression constructs coding for SPHK-1 and SPHK-2. Transfection is carried out for 20 hours. To the transfected cells obtained a labeled compound of formula I wherein X is (HO)2PO is added at 2 μM and incubated for 0.5 hours, 1 hour and 3 hours, respectively. Lipids are extracted and the extraction residue obtained is subjected to TLC using BuOH/AcOH/H2O 3:1:1 as a solvent system. TLC plates obtained are scanned using CCD camera and density of the lipid products obtained is measured using AlphaImage 2200 (see FIG. 3).

Compound: N[C@@H](CO)[C@H](O)/C=C/CCCOC(=O)CCCc1cc2ccc3cccc4ccc(c1)c2c34 [Example 1]
- rate of phosphorylation (phosphate conversion rate) relative to sphingosine (=1), SPHK-1 (human SPHK-1; 1 mM ATP, 30°): 0.048
- times (fold) less efficiently converted to the phosphate than SP, SPHK-1 (human SPHK-1): about 20
- rate of phosphorylation (phosphate conversion rate) relative to sphingosine (=1), SPHK-2 (human SPHK-2; 1 mM ATP, 30°): 0.14

Compound: N[C@@H](CO)[C@H](O)/C=C/CCCOC(=O)CCCCCc1cc2ccc3cccc4ccc(c1)c2c34 [Example 2]
- rate of phosphorylation (phosphate conversion rate) relative to sphingosine (=1), SPHK-1 (human SPHK-1; 1 mM ATP, 30°): 0.078
- improvement of phosphorylation rate by a factor, SPHK-1 (human SPHK-1; compared to example 1): 2
- rate of phosphorylation (phosphate conversion rate) relative to sphingosine (=1), SPHK-2 (human SPHK-2; 1 mM ATP, 30°): 0.83

- rate of phosphorylation (phosphate conversion rate) relative to sphingosine (=1), SPHK-1 (human SPHK-1; 1 mM ATP, 30°): 0.024
- times (fold) less efficiently converted to the phosphate than SP, SPHK-1 (human SPHK-1): about 40
- rate of phosphorylation (phosphate conversion rate) relative to sphingosine (=1), SPHK-2 (human SPHK-2; 1 mM ATP, 30°): 0.065
Compound: N[C@@H](CO)[C@H](O)/C=C/CCCOC(=O)CCCCCCCCCc1cc2ccc3cccc4ccc(c1)c2c34 [Example 3]

Compound: N[C@@H](CO)[C@H](O)/C=C/CCCCCCCCCCOC(=O)c1cc2ccc3cccc4ccc(c1)c2c34 [Example 4]
- phosphorylation by SPHK-1 (in words) (human SPHK-1): almost equal phosphorylation by SPHK-1 relative to natural SP
- rate of phosphorylation (phosphate conversion rate) relative to sphingosine (=1), SPHK-1 (human SPHK-1; 1 mM ATP, 30°): 0.83
- degradation of the ester functionality (human SPHK-1; short term in vitro phosphorylation experiments): no degradation is observed
- time to incorporation into the cells after addition [1]: ≤ 5 min
- subcellular distribution ([1]; after 15-30 minutes of incubation): predominantly distribution to the endoplasmic reticulum and to the Golgi apparatus
- major metabolite ([1]; thin-layer chromatography): co-migrates with sphingosine-1-phosphate (SPP)
- number of products formed intracellularly ([1]; thin-layer chromatography): 4
- rate of phosphorylation (phosphate conversion rate) relative to sphingosine (=1), SPHK-2 (human SPHK-2; 1 mM ATP, 30°): 1.25

- rate of phosphorylation (phosphate conversion rate) relative to sphingosine (=1), SPHK-1 (human SPHK-1; 1 mM ATP, 30°): 0.28
- reduction of phosphorylation efficiency (factor), SPHK-1 (human SPHK-1): 2
- rate of phosphorylation (phosphate conversion rate) relative to sphingosine (=1), SPHK-2 (human SPHK-2; 1 mM ATP, 30°): 0.59
- reduction of phosphorylation efficiency (factor), SPHK-2 (human SPHK-2; compared to compound of example 4): 3
Compound: N[C@@H](CO)[C@H](O)/C=C/CCCCCCCCCCNC(=O)c1cc2ccc3cccc4ccc(c1)c2c34 [Example 5]

- rate of phosphorylation (phosphate conversion rate) relative to sphingosine (=1), SPHK-1 (human SPHK-1; 1 mM ATP, 30°): 0.051
- reduction of phosphorylation efficiency (factor), SPHK-1 (human SPHK-1): about 20
- phosphorylation by SPHK-2 (in words) (human SPHK-2): almost as efficiently as SP
- rate of phosphorylation (phosphate conversion rate) relative to sphingosine (=1), SPHK-2 (human SPHK-2; 1 mM ATP, 30°): 0.83
Compound: N[C@@H](CO)[C@H](O)/C=C/CCCCCCCCCCNS(=O)(=O)c1cc2ccc3cccc4ccc(c1)c2c34 [Example 6]

- rate of phosphorylation (phosphate conversion rate) relative to sphingosine (=1), SPHK-1 (human SPHK-1; 1 mM ATP, 30°): 0.063
- rate of phosphorylation (phosphate conversion rate) relative to sphingosine (=1), SPHK-2 (human SPHK-2; 1 mM ATP, 30°): 0.026
Compound: CN(C)c1cccc2c(S(=O)(=O)NCCCCCCCCCC/C=C/[C@@H](O)[C@@H](N)CO)cccc12 [Example 7]

- phosphorylation by sphingosine kinase in the presence of ATP (sphingosine kinase): phosphorylates
Compound: N[C@H](COCCCCCCCCCCCNc1ccc([N+](=O)[O-])c2nonc12)COP(=O)(O)O [Example 23, Phosphoric acid mono-{(R)-2-amino-3-[11-(7-nitro-benzo[1,2,5]oxadiazol-4-ylamino)-undecyloxy]-propyl}ester]

Compound: N[C@@H](CO)[C@H](O)/C=C/CCCCCCCCCCNc1ccc([N+](=O)[O-])c2nonc12 [Example 24]
- phosphorylation in cells overexpressing SPHK-1 versus SPHK-2 [2]: phosphorylated more efficient by SPHK-2 than by SPHK-1

- rate of phosphorylation with SPHK-1 (human SPHK-1; 20 μM, 1 mM ATP, 30°): 41 nmol/min/mg
- rate of phosphorylation with SPHK-2 (human SPHK-2; 20 μM, 1 mM ATP, 30°): 25 nmol/min/mg
Compound: CCCCCCCCCCCCC/C=C/[C@@H](O)[C@@H](N)CO [sphingosine]

From patent US20080318255A1, “Fluorescent Labeled Sphingosines” (priority 2003, published 2008)
